Here are results for 20 compounds from patent US20240228488A1 (TAKEDA PHARMACEUTICAL COMPANY LIMITED, priority 2021, published 2024).

The target in experiment [1] is human activated kallikrein enzyme (Homo sapiens, UniProt P03952). The experiment can be described thus: Plasma kallikrein inhibition, fluorogenic PFR-AMC substrate, 500 pM activated kallikrein format. In kind it is biochemical. To be noted: 300 uM PFR-AMC, 30 min preincubation, 10 min reaction. Put shortly: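 High-enzyme format of the fluorogenic peptide assay, with EC50 taken from AMC signal: 500 pM activated kallikrein, 300 uM Pro-Phe-Arg-AMC, 30 min compound preincubation and 10 min reaction, all at room temperature, pH 7.5.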

For experiment [2], the target named is T1, plasma kallikrein (Homo sapiens, UniProt P03952).
T1 construct: from tissue
The experiment can be described thus: Neat human plasma assay, FXIIa contact pathway-activated, PFR-AMC substrate. Format: biochemical. To be noted: read-out: Human Plasma Assay: IC90. Put shortly:
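Compound inhibition of plasma kallikrein measured as PFR-AMC (100 μM) cleavage rate over 5 min at room temperature in 78% citrated human plasma activated with 10 nM FXIIa (Tris pH 7.5 buffer). IC50/IC90 from 4-parameter fit of rate versus inhibitor concentration.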

[3] abbreviates: 500 pM activated kallikrein, read-out: Primary Dose Response Assay: Average EC50.
Where [4] appears, read: citrated human plasma 78% final, 10 nM human FXIIa, 100 μM PFR-AMC.

pEC50: −log10 of the molar value. Where two headings read alike, the source gives them in different places.

T1 sequence (P03952 391-638 limits assumed): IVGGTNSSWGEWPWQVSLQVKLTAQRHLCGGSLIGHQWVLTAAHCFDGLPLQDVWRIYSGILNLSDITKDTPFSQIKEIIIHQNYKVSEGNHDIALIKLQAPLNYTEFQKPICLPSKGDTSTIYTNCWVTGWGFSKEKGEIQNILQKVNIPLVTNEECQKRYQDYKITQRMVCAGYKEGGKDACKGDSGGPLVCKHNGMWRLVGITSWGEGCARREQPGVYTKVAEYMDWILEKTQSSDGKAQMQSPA
T1 sequence (P03952 20-390 partner limits assumed): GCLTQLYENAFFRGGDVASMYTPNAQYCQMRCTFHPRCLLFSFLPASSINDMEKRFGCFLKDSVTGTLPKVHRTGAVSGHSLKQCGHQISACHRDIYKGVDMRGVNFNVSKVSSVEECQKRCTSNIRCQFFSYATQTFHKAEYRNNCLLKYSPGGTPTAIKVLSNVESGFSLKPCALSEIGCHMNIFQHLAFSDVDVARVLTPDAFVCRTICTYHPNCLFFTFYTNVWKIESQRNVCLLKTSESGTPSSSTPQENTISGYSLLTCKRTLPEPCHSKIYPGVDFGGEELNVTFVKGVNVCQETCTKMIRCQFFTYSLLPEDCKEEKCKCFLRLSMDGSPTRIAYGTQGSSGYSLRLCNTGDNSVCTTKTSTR
human activated kallikrein enzyme, sequence (P03952 391-638 limits assumed): as the sequence (P03952 391-638 limits assumed) above
human activated kallikrein enzyme, sequence (P03952 20-390 partner limits assumed): as the sequence (P03952 20-390 partner limits assumed) above

On to `CN(C)CCc1cc(C2CC2)cn2cc(CNc3ccnc(NC(=O)[C@H]4C[C@@H]4c4cccc(Cl)c4)c3)nc12` [Example 598, (1S,2S)-2-(3-chlorophenyl)-N-(4-(((6-cyclopropyl-8-(2-(dimethylamino)ethyl)imidazo[1,2-a]pyridin-2-yl)methyl)amino)pyridin-2-yl)cyclopropane-1-carboxamide], for which the pEC50 (in general, −log10 of the EC50, conventionally taken in molar units) in experiment [1] (setting [3]) was over 9.00. For the same compound, in experiment [2] (setting [4]), the IC90 (commonly the concentration needed for an effect of 90%) is under 400 nM.
Take `COCCN1CCN(c2cc(C3CC3)cn3cc(CNc4ccnc(NC(=O)[C@H]5C[C@@H]5c5cccc(Cl)c5)c4)nc23)CC1` [Example 599, (1S,2S)-2-(3-chlorophenyl)-N-(4-(((6-cyclopropyl-8-(4-(2-methoxyethyl)piperazin-1-yl)imidazo[1,2-a]pyridin-2-yl)methyl)amino)pyridin-2-yl)cyclopropane-1-carboxamide]: the pEC50 in experiment [1] (setting [3]) was over 9.00. Moreover, in experiment [2] (setting [4]), the IC90 is under 400 nM.
With `CCOC(=O)CN1CCN(c2cc(C3CC3)cn3cc(CNc4ccnc(NC(=O)[C@H]5C[C@@H]5c5cccc(Cl)c5)c4)nc23)CC1` [Example 600, ethyl 2-(4-(2-(((2-((1S,2S)-2-(3-chlorophenyl)cyclopropane-1-carboxamido)pyridin-4-yl)amino)methyl)-6-cyclopropylimidazo[1,2-a]pyridin-8-yl)piperazin-1-yl)acetate], the pEC50 in experiment [1] (setting [3]) is over 9.00. In experiment [2] (setting [4]), the IC90 was over 48000 nM.
Taken in the same sequence, the figures for `O=C(Nc1cc(NCc2cn3cc(C4CC4)cc(N4CCN(CC5CC5)CC4)c3n2)ccn1)[C@H]1C[C@@H]1c1cccc(Cl)c1` [Example 601, (1S,2S)-2-(3-chlorophenyl)-N-(4-(((6-cyclopropyl-8-(4-(cyclopropylmethyl)piperazin-1-yl)imidazo[1,2-a]pyridin-2-yl)methyl)amino)pyridin-2-yl)cyclopropane-1-carboxamide] were over 9.00 and 400 to 1500 nM.
Consider `O=C(O)CN1CCN(c2cc(C3CC3)cn3cc(CNc4ccnc(NC(=O)[C@H]5C[C@@H]5c5cccc(Cl)c5)c4)nc23)CC1` [Example 602, 2-(4-(2-(((2-((1S,2S)-2-(3-chlorophenyl)cyclopropane-1-carboxamido)pyridin-4-yl)amino)methyl)-6-cyclopropylimidazo[1,2-a]pyridin-8-yl)piperazin-1-yl)acetic acid], for which the pEC50 in experiment [1] (setting [3]) was over 9.00. In experiment [2] (setting [4]), the IC90 was under 400 nM.
For the compound `O=C(Nc1cc(NCc2cn3cc(C4CC4)cc(N4CCN(CCO)CC4)c3n2)ccn1)[C@H]1C[C@@H]1c1cccc(Cl)c1` [Example 603, (1S,2S)-2-(3-chlorophenyl)-N-(4-(((6-cyclopropyl-8-(4-(2-hydroxyethyl)piperazin-1-yl)imidazo[1,2-a]pyridin-2-yl)methyl)amino)pyridin-2-yl)cyclopropane-1-carboxamide], the pEC50 in experiment [1] (setting [3]) is over 9.00. Moreover, in experiment [2] (setting [4]), the IC90 is under 400 nM.
Regarding `O=C(Nc1cc(N(CCO)Cc2cn3cc(C4CC4)ccc3n2)ccn1)[C@H]1C[C@@H]1c1cccc(Cl)c1` [Example 604, (1S,2S)-2-(3-chlorophenyl)-N-(4-(((6-cyclopropylimidazo[1,2-a]pyridin-2-yl)methyl)(2-hydroxyethyl)amino)pyridin-2-yl)cyclopropane-1-carboxamide], the negative-log EC50 (pEC50) in experiment [1] (setting [3]) was 8.00 to 9.00. The IC90 in experiment [2] (setting [4]) is 10000 to 48000 nM.
Taken in the same sequence, the figures for `Cc1cc(NCc2cn3cc(C4CC4)cc(N4CCN(C)CC4)c3n2)cc(NC(=O)[C@H]2C[C@@H]2c2cccc(Cl)c2)n1` [Example 605, (1S,2S)-2-(3-chlorophenyl)-N-(4-(((6-cyclopropyl-8-(4-methylpiperazin-1-yl)imidazo[1,2-a]pyridin-2-yl)methyl)amino)-6-methylpyridin-2-yl)cyclopropane-1-carboxamide] were over 9.00 and 400 to 1500 nM.
Taken in the same sequence, the figures for `CNCCc1cc(C2CC2)cn2cc(CNc3ccnc(NC(=O)[C@H]4C[C@@H]4c4cccc(Cl)c4)c3)nc12` [Example 607, (1S,2S)-2-(3-chlorophenyl)-N-(4-(((6-cyclopropyl-8-(2-(methylamino)ethyl)imidazo[1,2-a]pyridin-2-yl)methyl)amino)pyridin-2-yl)cyclopropane-1-carboxamide] were over 9.00 and under 400 nM.
Consider `CN1CC(O)(c2cc(C3CC3)cn3cc(CNc4ccnc(NC(=O)[C@H]5C[C@@H]5c5cccc(Cl)c5)c4)nc23)C1` [Example 608, (1S,2S)-2-(3-chlorophenyl)-N-(4-(((6-cyclopropyl-8-(3-hydroxy-1-methylazetidin-3-yl)imidazo[1,2-a]pyridin-2-yl)methyl)amino)pyridin-2-yl)cyclopropane-1-carboxamide], for which the pEC50 in experiment [1] (setting [3]) was over 9.00. Further, in experiment [2] (setting [4]), the IC90 was under 400 nM.
Regarding `CN1CC(c2cc(C3CC3)cn3cc(CNc4ccnc(NC(=O)[C@H]5C[C@@H]5c5cccc(Cl)c5)c4)nc23)C1` [Example 609, (1S,2S)-2-(3-chlorophenyl)-N-(4-(((6-cyclopropyl-8-(1-methylazetidin-3-yl)imidazo[1,2-a]pyridin-2-yl)methyl)amino)pyridin-2-yl)cyclopropane-1-carboxamide], in experiment [1] (setting [3]), the pEC50 was over 9.00. Further, the IC90 in experiment [2] (setting [4]) was under 400 nM.
The matching figures for `O=C(Nc1nsc(NCc2cn3cc(C4CC4)ccc3n2)n1)[C@H]1C[C@@H]1c1cccc(Cl)c1` [Example 610, (1S,2S)-2-(3-chlorophenyl)-N-(5-(((6-cyclopropylimidazo[1,2-a]pyridin-2-yl)methyl)amino)-1,2,4-thiadiazol-3-yl)cyclopropane-1-carboxamide]: 8.00 to 9.00 and 10000 to 48000 nM.
On to `O=C(Nc1cc(NCc2cn3cc(C4CC4)ccc3n2)cc(O)n1)[C@H]1C[C@@H]1c1cccc(Cl)c1` [Example 611, (1S,2S)-2-(3-chlorophenyl)-N-(4-(((6-cyclopropylimidazo[1,2-a]pyridin-2-yl)methyl)amino)-6-hydroxypyridin-2-yl)cyclopropane-1-carboxamide], for which the pEC50 in experiment [1] (setting [3]) was over 9.00. The IC90 in experiment [2] (setting [4]) fell in the range of 1500 to 10000 nM.
For `CN1CCN(c2cc(C3CC3)cn3cc(CNc4cnnc(NC(=O)[C@H]5C[C@@H]5c5cccc(Cl)c5)c4)nc23)CC1` [Example 612, (1S,2S)-2-(3-chlorophenyl)-N-(5-(((6-cyclopropyl-8-(4-methylpiperazin-1-yl)imidazo[1,2-a]pyridin-2-yl)methyl)amino)pyridazin-3-yl)cyclopropane-1-carboxamide], the pEC50 in experiment [1] (setting [3]) was over 9.00. Further, the IC90 in experiment [2] (setting [4]) was in the range of 1500 to 10000 nM.
On to `CN1CCN(c2cc(C3CC3)cn3cc(CNc4nccc(NC(=O)[C@H]5C[C@@H]5c5cccc(Cl)c5)n4)nc23)CC1` [Example 613, (1S,2S)-2-(3-chlorophenyl)-N-(2-(((6-cyclopropyl-8-(4-methylpiperazin-1-yl)imidazo[1,2-a]pyridin-2-yl)methyl)amino)pyrimidin-4-yl)cyclopropane-1-carboxamide], for which the pEC50 in experiment [1] (setting [3]) was 8.00 to 9.00. Moreover, in experiment [2] (setting [4]), the IC90 fell in the range of 400 to 1500 nM.
`Cc1ccnc([C@H]2C[C@@H]2C(=O)Nc2cc(N[C@H](C)c3cn4cc(CF)cc(N5CC(=O)N(C)C5=O)c4n3)ncn2)n1` [Example 678, (1S,2S)—N-(6-(((R)-1-(6-(fluoromethyl)-8-(3-methyl-2,4-dioxoimidazolidin-1-yl)imidazo[1,2-a]pyridin-2-yl)ethyl)amino)pyrimidin-4-yl)-2-(4-methylpyrimidin-2-yl)cyclopropane-1-carboxamide]: the pEC50 in experiment [1] (Primary Dose Response Assay: Average EC50, 500 pM activated kallikrein) was over 9.00. In addition, the IC90 in experiment [2] is under 400 nM.
In the case of `CN1CCN(c2cc(C3CC3)cn3cc(CNc4cc(NC(=O)[C@H]5C[C@@H]5c5cccc(Cl)c5)ncn4)nc23)CC1` [Example I-2, (1S,2S)-2-(3-chlorophenyl)-N-(6-(((6-cyclopropyl-8-(4-methylpiperazin-1-yl)imidazo[1,2-a]pyridin-2-yl)methyl)amino)pyrimidin-4-yl)cyclopropane-1-carboxamide], the pEC50 in experiment [1] (setting [3]) was over 9.00. In experiment [2] (setting [4]), the IC90 was 400 to 1500 nM.
For the compound `CN(C)C1CN(c2cc(C3CC3)cn3cc(CNc4ccnc(NC(=O)[C@H]5C[C@@H]5c5cccc(Cl)c5)c4)nc23)C1` [Example I-4, (1S,2S)-2-(3-chlorophenyl)-N-(4-(((6-cyclopropyl-8-(3-(dimethylamino)azetidin-1-yl)imidazo[1,2-a]pyridin-2-yl)methyl)amino)pyridin-2-yl)cyclopropane-1-carboxamide], in experiment [1] (setting [3]), the pEC50 is over 9.00. Besides, the IC90 in experiment [2] (setting [4]) was in the range of 1500 to 10000 nM.
Turning to `CN1CCC(Nc2cc(C3CC3)cn3cc(CNc4cc(NC(=O)[C@H]5C[C@@H]5c5cccc(Cl)c5)ncn4)nc23)CC1` [Example I-5, (1S,2S)-2-(3-chlorophenyl)-N-(6-(((6-cyclopropyl-8-((1-methylpiperidin-4-yl)amino)imidazo[1,2-a]pyridin-2-yl)methyl)amino)pyrimidin-4-yl)cyclopropane-1-carboxamide], the pEC50 in experiment [1] (setting [3]) is over 9.00. In experiment [2] (setting [4]), the 90% effect concentration (IC90) lay in the range of 400 to 1500 nM.
The matching figures for `COCC1CN(c2cc(C3CC3)cn3cc(CNc4cc(NC(=O)[C@H]5C[C@@H]5c5cccc(Cl)c5)ncn4)nc23)CCN1C` (stereo partly drawn) [Example I-6, (1S,2S)-2-(3-chlorophenyl)-N-(6-(((6-cyclopropyl-8-(3-(methoxymethyl)-4-methylpiperazin-1-yl)imidazo[1,2-a]pyridin-2-yl)methyl)amino)pyrimidin-4-yl)cyclopropane-1-carboxamide]: 8.00 to 9.00 and 1500 to 10000 nM.
